In patent EP2364976B1, “S1P receptor modulating compounds and use thereof” (EPIX Pharmaceuticals, Inc., priority 2007, dated 2007):
pEC50: −log10 of the molar value. Values joined by “and” are separate entries in the source; they are usually repeats but may differ in a detail not shown here. Equal entries are not always repeated.

Biological target: T1, hS1P1 (Homo sapiens, UniProt P21453)
T1 construct: expressed in transfected cells
Test: hS1P1 EC50 (S1P receptor Ca2+ flux protocol, FLIPR, CHO K1 Gqi5 cells)
Type: cell-based
Conditions: several values per compound = repeat determinations as printed
Experimental: S1P receptor activity may also be measured by an SIP receptor (e.g., hS1P1, hS1P3, rS1P1, rS1P3 and parental cell) Ca^2+ Flux protocol as described below: • 1. Material • a. FLIPR buffer: 1x HBSS; 10mM HEPES • b. Cell growth media: • i. human and rat S1P1 and S1P3: F12-Ham's media; 10% FBS (qualified); 1x Pen/Strep/Glu; 300ug/mL Hygromycin; 400ug/mL Geneticin ii. Parental cell: human and rat S1P and S1P3: F12-Ham's media; 10% FBS (qualified); 1x Pen/Strep/Glu; 300ug/mL Hygromycin; • c. Cell seeding media; F12-Ham's media; 10% FBS (Charcoal/dextran stripped); 1x Pen/Strep/Glu; • d. Cell dissociation buffer: Versene from Invitrogen • e. Agonist (SIP) dissolving buffer: 0.4% (w/v) fatty-acid free BSA (Sigma # A8806) in FLIPR buffer • f. FLIPR dye: BD PBX Calcium assay kit; Cat#641077 is composed of Calcium indicator (Cat#850000) and 100x PBX signal enhancer (cat#850001). The 100x PBX signal enhancer is diluted into FLIPR buffer 1:100 and the calcium indicator is then added at 1:1000 ratio. • g. Cell plates (96-well): Greiner Cat#655090 • h. Compound plates (96-well): Costar #3365 • i. S1P stock solution preparation: S1P is purchased from CalBioChem (Catalog # 970471; 1mg vial; custom prep using methanol, & nitrogen gas drying inside glass vial; Storage @ -20°C). Dissolve 1 vial of SIP into 26.4ml of agonist dissolving buffer in a 50ml centrifuge tube; Remove label from bottle of SIP, open and drop entire bottle into tube. Sonicate at 37° for ½ hour. Clear solution of 100µM will result. This stock solution is aliquoted and stored at -80C • 2. Cell line maintenance • a. V5 tags were added at the N-terminus of hS1P1, hS1P3, rS1P1 and rS1P3. All four genes were transfected into CHO K1 cells which stably express Gqi5. • b. hS1P1 and hS1P3 were established as stable clones and rS1P1 and rS1P3 were sorted by anti V5 tag and established as stable pools after sorting. • c. Parental cell line CHO/K1 Gqi5 is used as the control. • d. All the cells are maintained in cell growth media and splitted twice a week using Versene. • e. All the cell lines are used under passage 30. • 3. Assay protocol • a. Cell seeding: Cells are lifted from the flask by Versene and seeded in cell plates at 50K/well in cell seeding media. Cells are grown overnight at 37 degree. • b. Cell loading: Cell seeding media is discarded. Cells are loaded with 50ul of FLIPR dye at RT for 90 min. Signal is stable for up to 5 h after dye loading. • c. Agonist (S1P) preparation: Frozen stock of S1P is thawed out and sonicated at 37c for 30 minutes every time before use. The stock is then diluted into FLIPR buffer at proper concentration. • d. Compound preparation: Compounds are dissolved in DMSO. A 3x, 10 point dilution of the compounds are carried out in DMSO. Then the compounds are diluted into assay buffer133x so that the DMSO concentration is 0.75%. • e. Activity measurement: The fluorescence signal change of the cells upon compound addition is monitored in FLIPRtetra. 25ul of compound is transferred into the cell plates (50ul of FLIPR dye; DMSO concentration: 0.25%). Signal is recorded for 90sec after compound addition. Then 50ul of 500nM SIP is added in the cell plate, and signal is recorded for 90 seconds upon addition. • 4. Data analysis • a. Peak value is calculated for each compound/S1P addition • b. The peak value of S1P at 200nM is used as high control (100%), and the peak value of buffer only is used as low control (0%). • c. Data is normalized against high and low controls using the following equation: POC_S = 100*(RAW-LO)/(HI-LO) [formula] • d. Peak value is plotted against the concentration of compound. • e. Curve is fitted using the 4 parameter fit: Y = (A+(B/(1+(((x/C))^(∧)D)))) [formula] where: Y is POC_S (or POC) • X is compound concentration • A is the minimum (EC50min or IC50min) • B is the maxmum (EC50max or IC50max) • C is the inflection point (EC50IP or IC50IP) • D is the hill slope (EC50 slope or IC50 slope).

T1 sequence (P21453 whole entry): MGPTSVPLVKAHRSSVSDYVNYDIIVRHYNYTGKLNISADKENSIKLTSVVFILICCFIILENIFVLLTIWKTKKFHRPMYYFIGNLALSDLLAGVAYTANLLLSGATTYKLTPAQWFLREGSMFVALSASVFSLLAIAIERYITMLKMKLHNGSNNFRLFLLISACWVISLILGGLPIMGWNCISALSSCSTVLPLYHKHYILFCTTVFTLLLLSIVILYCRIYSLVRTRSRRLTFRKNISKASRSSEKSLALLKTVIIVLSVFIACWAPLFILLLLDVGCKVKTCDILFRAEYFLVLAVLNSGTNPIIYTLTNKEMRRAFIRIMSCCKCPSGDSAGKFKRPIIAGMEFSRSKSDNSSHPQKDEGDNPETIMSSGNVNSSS

Row | Structure (SMILES) | pEC50
1 | O=C(O)C1CN(Cc2ccc(-c3cc4cc(Oc5ccccc5)ccc4o3)cc2)C1 [Reference Compound 19, 1-(4-(5-phenoxybenzofuran-2-yl)benzyl)azetidine-3-carboxylic acid] | 6.29 and 7.04
2 | NC(=O)C(CC(=O)O)NCc1ccc(-c2cc3cc(Cc4ccccc4)ccc3o2)c(F)c1 (stereo not shown) [Reference Compound 85, 4-Amino-3-(4-(5-benzylbenzofuran-2-yl)-3-fluorobenzylamino)-4-oxobutanoic acid] | 5.73
3 | O=C(O)C1CN(Cc2ccc(-c3cc4cc(Cc5ccccc5)ccc4o3)c(Cl)c2)C1 [Reference Compound 36, 1-((4-(5-benzylbenzofuran-2-yl)-3-chlorophenyl)methyl)azetidine-3-carboxylic acid] | 6.70
4 | CCCCOc1ccc2oc(-c3ccc(CN4CC(C(=O)O)C4)cc3Cl)cc2c1 [Reference Compound 50, 1-((4-(5-Butoxybenzofuran-2-yl)-3-chlorophenyl)methyl)azetidine-3-carboxylic acid] | 6.58
5 | O=C(O)CCNCc1ccc(-c2cc3cc(C4CCCC4)ccc3o2)c(F)c1 [Reference Compound 58, 3-(4-(5-cyclopentylbenzofuran-2-yl)-3-fluorobenzylamino)propanoic acid] | 5.97
6 | CCCCc1ccc2oc(-c3ccc(CN4CC(C(=O)O)C4)cc3)cc2c1 [Reference Compound 2, 1-((4-(5-Butylbenzofuran-2-yl)phenyl)methyl)azetidine-3-carboxylic acid] | 6.70 and 6.29 and 6.06
7 | O=C(O)C1CN(Cc2ccc(-c3cc4cc(Cc5ccccc5F)ccc4o3)c(F)c2)C1 [Reference Compound 75, 1-(3-Fluoro-4-(5-(2-fluorobenzyl)benzofuran-2-yl)benzyl)azetidine-3-carboxylic acid] | 6.89
8 | O=C(O)[C@@H]1CCCN(Cc2ccc(-c3cc4cc(Cc5ccccc5)ccc4o3)c(F)c2)C1 [Reference Compound 62, (3R)-1-((4-(5-Benzylbenzofuran-2-yl)-3-fluorophenyl)methyl)piperidine-3-carboxylic acid] | 5.26
9 | O=C(O)C1CN(Cc2ccc(-c3cc4cc(OCC5CC5)ccc4o3)c(F)c2)C1 [Reference Compound 49] | 6.96
10 | O=C(O)C1CN(Cc2ccc(-c3nc4ccc(Cc5ccccc5)cc4o3)c(F)c2)C1 [Reference Compound 111, 1-((4-(6-Benzylbenzo[d]oxazol-2-yl)-3-fluorophenyl)methyl)azetidine-3-carboxylic acid] | 8.10
11 | O=C(O)C1CN(Cc2ccc(-c3cc4cc(N5CCCCC5)ccc4o3)cc2)C1 [Reference Compound 34, 1-(4-(5-(piperidin-1-yl)benzofuran-2-yl)benzyl)azetidine-3-carboxylic acid] | 5.82
12 | CCCCOc1ccc2oc(-c3ccc(CN4CC(C(=O)O)C4)cc3)cc2c1 [Reference Compound 3] | 6.28
13 | O=C(O)C1CN(Cc2ccc(-c3cc4cc(OCC5CCCC5)ccc4o3)c(F)c2)C1 [Reference Compound 38, 1-(4-(5-(cyclopentylmethoxy)benzofuran-2-yl)-3-fluorobenzyl)azetidine-3-carboxylic acid] | 6.10
14 | CCCCOc1ccc2oc(-c3ccc(CN4CC(C(=O)O)C4)cc3OC)cc2c1 [Reference Compound 24] | 6.38 and 6.15
15 | O=C(O)C1CN(Cc2ccc(-n3cc4cc(Cc5ccccc5)ccc4n3)c(F)c2)C1 [Reference Compound 87, 1-(4-(5-Benzyl-2H-indazol-2-yl)-3-fluorobenzyl)azetidine-3-carboxylic acid] | 7.03
16 | O=C(O)CCN1CCc2cc(-c3cc4cc(OCC5CCCC5)ccc4o3)ccc2C1 [Reference Compound 57, 3-(6-(5-(cyclopentylmethoxy)benzofuran-2-yl)-3,4-dihydroisoquinolin.2(1H)-yl)propanoic acid] | 6.06
17 | O=C(O)C1CN(Cc2ccc(-c3nc4ccc(Cc5ccccc5)cc4[nH]3)c(F)c2)C1 [Reference Compound 115, 1-((4-(5-Benzyl-1H-benzo[d]imidazol-2-yl)-3-fluorophenyl)methyl)azetidine-3-carboxylic acid] | 5.31

Continued, values first:

Row | pEC50 | Structure (SMILES)
18 | 5.97 | COc1cc(CN2CC(C(=O)O)C2)ccc1-c1cc2cc(C3CCCC3)ccc2o1 [Reference Compound 47, 1-((4-(5-cyclopentylbenzofuran-2-yl)-3-methoxyphenyl)methyl)azetidine-3-carboxylic acid]
19 | 6.57 and 6.31 and 6.42 | CC(C)Cc1ccc2oc(-c3ccc(CN4CC(C(=O)O)C4)cc3)cc2c1 [Reference Compound 10, 1-((4-(5-isobutylbenzofuran-2-yl)phenyl)methyl)azetidine-3-carboxylic acid]
20 | 7.28 | O=C(O)C1CN(Cc2ccc(-c3cc4cc(Cc5ccc(F)cc5)ccc4o3)c(F)c2)C1 [Reference Compound 73, 1-(3-fluoro-4-(5-(4-fluorobenzyl)benzofuran-2-yl)benzyl)azetidine-3-carboxylic acid]
21 | 8.52 | O=C(O)C1CN(Cc2ccc(-c3nc4cc(Sc5ccccc5)ccc4o3)c(F)c2)C1 [Inventive Compound 117, 1-((3-Fluoro-4-(5-(phenylthio)benzo[d]oxazol-2-yl)phenyl)methyl)azetidine-3-carboxylic acid]
22 | 7.12 | O=C(O)C1CN(Cc2ccc(-c3cc4cc(Cc5nccs5)ccc4o3)c(F)c2)C1 [Reference Compound 94, 1-((3-Fluoro-4-(5-(thiazol-2-ylmethyl)benzofuran-2-yl)phenyl)methyl)azetidine-3-carboxylic acid]
23 | 7.23 | O=C(O)C1CN(Cc2ccc(-c3ccc4oc(Cc5ccccc5)cc4c3)c(F)c2)C1 [Reference Compound 80, 1-(4-(2-Benzylbenzofuran-5-yl)-3-fluorobenzyl)azetidine-3-carboxylic acid]
24 | 7.57 | O=C(O)C1(O)CN(Cc2ccc(-c3nc4cc(Cc5ccccc5)ccc4s3)c(F)c2)C1 [Reference Compound 89, 1-((4-(5-Benzylbenzo[d]thiazol-2-yl)-3-fluorophenyl)methyl)-3-hydroxyazetidine-3-carboxylic acid]
25 | 7.06 | O=C(O)C1CN(Cc2ccc(-c3cc4cc(COc5ccccc5)ccc4o3)c(F)c2)C1 [Reference Compound 69, 1-(3-Fluoro-4-(5-(phenoxymethyl)benzofuran-2-yl)benzyl)azetidine-3-carboxylic acid]
26 | 5.87 | O=C(O)C1CN(Cc2ccc(-c3cc4cc(Cc5ccccc5)ccc4[nH]3)c(F)c2)C1 [Reference Compound 99, 1-((3-Fluoro-4-(5-(phenylmethyl)-1H-indol-2-yl)phenyl)methyl)-3-azetidinecarboxylic acid]
27 | 7.80 | O=C(O)C1CN(Cc2ccc(-c3cc4cc(C(=NO)c5ccccc5)ccc4o3)c(F)c2)C1 (mixture of isomers) [Reference Compound 103, (E/Z)-1-((3-Fluoro-4-(5-((hydroxyimino)(phenyl)methyl)benzofuran-2-yl)phenyl)methyl)azetidine-3-carboxylic acid]
28 | 7.89 | O=C(O)C1CN(Cc2ccc(-c3cc4cc(C(F)(F)c5ccccc5)ccc4o3)c(F)c2)C1 [Reference Compound 91, 1-((4-(5-(Difluoro(phenyl)methyl)benzofuran-2-yl)-3-fluorophenyl)methyl)azetidine-3-carboxylic acid]
